Data reported in paper PMC7662639, “Synthesis and Evaluation of PEG-PR for Water Flux Correction in an In Situ Rat Perfusion Model” (Molecules, 2020).
Like-named read-outs stand apart in the source and are kept apart here. Values belong to the molecule of their own block, whether it stands above or below them.

Assays:
[1] = Stability of markers and model drugs in Krebs–Ringer buffer (shaker bath, 37 °C, 120 min); format: physicochemical; details: for Ending (120 min) Conc. / Initial Conc.: 37 °C shaker bath, mean ± SD, n = 3; for Initial Conc.: start of experiment; for Percentage of concentration change: (Initial Conc. - Ending Conc.) / Initial Conc., 37 °C; for Ending (120 min) Conc. / Percentage of concentration change: 120 min
Experimental: At the beginning and end (120 min) of the experiment, perfusion solution samples (0.4 mL) were acquired and centrifuged at 12,000 rpm for 10 min to determine the concentration changes of all compounds by HPLC analysis.
Table S1. Concentration changes of all compounds before and after the shaker bath
experiment. Data are shown as mean ± SD, n = 3.
Initial Ending Percentage of
Compound (120 min) concentration
As/Ai Conc. (μM) As/Ai Conc. (μM) change
As: HPLC peak area of compound .
Ai: HPLC peak area of internal standard .
Percentage of concentration change: (Initial Conc. -Ending Conc.) / Initial Conc.
Figure S7. Calibration line of PR (MW = 354) in Krebs–Ringer buffer.
(1 picture or pasted object on this page, not shown here)

[2] = Recirculation intestinal perfusion method, Peff of model drugs with water flux corrected by marker; format: in vivo, rat
Experimental: A male rat weighing about 200 g was anesthetized and then fixed on a plate heated by a lamp at 37 °C. Through careful operation, two glass tubs were tightly secured on both ends of the intestinal segment using silk sutures. The Krebs–Ringer buffer was injected into the gut from the head end of the intestinal segment with a syringe until the outflow was clear. The intestine was then covered with cotton gauze wetted with 37 °C Krebs–Ringer buffer to maintain intestinal integrity and activity. The peristaltic pump and donor chamber (syringe) were connected with two catheters ligated onto the two abovementioned glass tubs. The intestinal segments were placed carefully back into the rat abdomen to avoid interference with blood circulation. […] After stabilizing the whole system for 10 min with the perfusion solution (peristaltic pump, flow: 5 mL/min), the initial sample (0.4 mL, C’0) was collected from the donor chamber, and the equal perfusion solution with the model drug (100 μM, C0) was added into the donor chamber. Samples (0.4 mL, C’t and Ce) were then collected every 10 min for 60 min. Finally, the length of the perfused intestinal segment was precisely measured at the end of the experiment.
Internal standard solution (cresol red, 600 μg/mL) was added into the 300-μL sample solution and vortexed for 30 s. Then, 600 μL of […] was added, and the samples were vortexed for 2 min. After homogeneous mixing, the mixture was centrifuged at 10,000 rpm for 10 min. Finally, the 20-μL treated supernatant was subjected to detection by HPLC.
Thus, it was necessary to correct the volume of the perfusion solution during the experiment. In this work, the volumes of the perfused solutions (Vt) were calculated from the experimental concentrations of the markers (C’t) as (4) V0=C^′V^′/C0′ (5) Vt=(V0−0.4)Ct−1′+0.4C^′/Ct′ (t=1,2,3…).
The corrected drug concentration (Ct) was calculated as (6) Ct=CeVt/V0 where Ct represents the concentration of the compound corrected by the marker at time t, and Ce represents the experimental drug concentration value.
The apparent absorption rate coefficients (ka) were obtained by the equation of luminal corrected concentration versus time:(7) Ct=C0×e^−ka·t.
The Peff value was obtained from ka using the following equation, where R is the effective radius of the intestinal segment:(8) Peff=Ka·R/2.

[3] = set-up: method as in ref 39 (Ruiz-Picazo et al. 2017); details: Doluisio method, ref 39 (Ruiz-Picazo et al. 2017), cited from earlier work
[4] = Everted gut sac (EGS) permeability; format: in vitro ADME, rat
Experimental: Briefly, the male Wistar rats were fasted for 1 day with access to only double-distilled water and then anesthetized with ether. Then, the duodenum, jejunum, ileum, and colon (10–15 cm) were cut out and preserved in cold Krebs–Ringer buffer. After the intestinal residue was removed, the intestinal segments were everted by a glass rod and ligated onto the appropriate glass tube. […] Then, 0.4 mL of receiver fluid was collected from the everted intestinal segments, and an equal blank Krebs–Ringer buffer was replenished every 15 min during the experiment.
An internal standard (cresol red 100 μg/mL) was added to every 300-μL intestinal fluid sample. The mixture was vortexed for 30 s and dried under nitrogen blowing at 40 °C. The residue was redissolved in 150-μL methanol and vortexed for 30 s. The supernatant was then subjected to detection by HPLC after centrifuging at 10,000 rpm for 10 min.

[5] = Water flux (Jwater) corrected by marker in the recirculation perfusion model; format: in vivo, rat; details: 60–120 min, marker 56 μM, mean ± SD, n = 6
Experimental: The effective intestinal membrane permeability (Peff) of each model drug was surveyed using the recirculation intestinal perfusion method, as previously mentioned. A male rat weighing about 200 g was anesthetized and then fixed on a plate heated by a lamp at 37 °C. Through careful operation, two glass tubs were tightly secured on both ends of the intestinal segment using silk sutures. The Krebs–Ringer buffer was injected into the gut from the head end of the intestinal segment with a syringe until the outflow was clear. The intestine was then covered with cotton gauze wetted with 37 °C Krebs–Ringer buffer to maintain intestinal integrity and activity. The peristaltic pump and donor chamber (syringe) were connected with two catheters ligated onto the two abovementioned glass tubs. […] Finally, the length of the perfused intestinal segment was precisely measured at the end of the experiment.
As previously mentioned, the water flux through the membrane due to water absorption and secretion was of such significance that it could have influence on the accuracy of the experimental results. […] In this work, the volumes of the perfused solutions (Vt) were calculated from the experimental concentrations of the markers (C’t) as (4) V0=C^′V^′/C0′ (5) Vt=(V0−0.4)Ct−1′+0.4C^′/Ct′ (t=1,2,3…).
Jwater corrected by the marker was calculated using the following equation:(9) Jwater=d(V0−Vt)/dt (t=1,2,3…).

[6] = set-up: method as in ref 22 (Sutton et al. 2001); details: SPIP; ref 22 (Sutton et al. 2001); cited from earlier work
[7] = set-up: method as in ref 21 (Tugcu-Demiroz et al. 2014); details: Doluisio technique; ref 21 (Tugcu-Demiroz et al. 2014); cited from earlier work
[8] = after 8 h, rat perfusion experiments; cited from earlier work
[9] = rat complete small intestine, water flux corrected by PEG4k-PR, mean ± SD, n = 3
[10] = rat complete small intestine, water flux corrected by PEG5k-PR, mean ± SD, n = 3
[11] = rat complete small intestine, water flux corrected by PR, mean ± SD, n = 3

Ending (120 min) Conc. [1]: 105.93 ± 0.61 µM
Initial Conc. [1]: 105.19 ± 0.96 µM
Percentage of concentration change [1]: 0.75%
Peff ([2]; colon, corrected by PEG5k-PR): 3.3e-05 cm/s
Peff ([2]; ileum, corrected by PEG5k-PR): 2.3e-05 cm/s
Peff ([2]; jejunum, corrected by PEG5k-PR): 2.6e-05 cm/s
Peff [2, 9]: 1.06 ± 0.24 ×10^−5 cm/s
Peff [2, 10]: 1.38 ± 0.34 ×10^−5 cm/s
Peff [2, 11]: 0.49 ± 0.10 ×10^−5 cm/s
Molecule: CC(C)NCC(O)COc1ccc(CC(N)=O)cc1 (stereo not drawn) [Atenolol]
Peff ([3]; colon): 21.1 ×10⁻⁶ cm/s
Peff ([3]; ileum): 16.3 ×10⁻⁶ cm/s
Peff ([3]; jejunum): 22.7 ×10⁻⁶ cm/s

Ending (120 min) Conc. [1]: 102.12 ± 0.58 µM
Initial Conc. [1]: 103.62 ± 2.29 µM
Percentage of concentration change [1]: 1.46%
Peff ([2]; colon, corrected by PEG5k-PR): 0.000102 cm/s
Peff ([2]; ileum, corrected by PEG5k-PR): 9.4e-05 cm/s
Peff ([2]; jejunum, corrected by PEG5k-PR): 0.000107 cm/s
Peff [2, 9]: 5.06 ± 0.57 ×10^−5 cm/s
Peff [2, 10]: 5.29 ± 1.49 ×10^−5 cm/s
Peff [2, 11]: 5.11 ± 0.85 ×10^−5 cm/s
Molecule: COCCc1ccc(OCC(O)CNC(C)C)cc1 (stereo not drawn) [Metoprolol]

Molecule: Phenol red [PR]
Ending (120 min) Conc. [1]: 56.11 ± 1.57 µM
Initial Conc. [1]: 56.90 ± 1.10 µM
Percentage of concentration change [1]: 1.38%
cumulative permeable percentage ([4]; 56 μM, all intestinal segments): 3–5%
cumulative permeable percentage at 112 μM relative to 28 μM ([4]; colon): twice as large
Papp ([4]; colon, 28 μM): 4.07 ± 1.33 ×10^−6 cm/s
W (cumulative permeable percentage) ([4]; colon, 28 μM): 2.50 ± 0.82%
Papp ([4]; colon, 56 μM): 5.83 ± 1.9 ×10^−6 cm/s
W (cumulative permeable percentage) ([4]; colon, 56 μM): 3.36 ± 0.79%
Papp ([4]; colon, 112 μM): 8.57 ± 3.54 ×10^−6 cm/s
W (cumulative permeable percentage) ([4]; colon, 112 μM): 5.18 ± 1.22%
Papp ([4]; ileum, 28 μM): 6.17 ± 2.17 ×10^−6 cm/s
W (cumulative permeable percentage) ([4]; ileum, 28 μM): 3.55 ± 1.50%
Papp ([4]; ileum, 56 μM): 6.77 ± 2.32 ×10^−6 cm/s
W (cumulative permeable percentage) ([4]; ileum, 56 μM): 4.23 ± 1.38%
Papp ([4]; ileum, 112 μM): 8.90 ± 1.65 ×10^−6 cm/s
W (cumulative permeable percentage) ([4]; ileum, 112 μM): 5.27 ± 2.31%
Papp ([4]; jejunum, 28 μM): 7.68 ± 2.04 ×10^−6 cm/s
W (cumulative permeable percentage) ([4]; jejunum, 28 μM): 4.44 ± 1.98%
Papp ([4]; jejunum, 56 μM): 8.36 ± 3.11 ×10^−6 cm/s
W (cumulative permeable percentage) ([4]; jejunum, 56 μM): 4.92 ± 1.12%
Papp ([4]; jejunum, 112 μM): 10.42 ± 2.58 ×10^−6 cm/s
W (cumulative permeable percentage) ([4]; jejunum, 112 μM): 5.77 ± 1.70%
Jwater (water flux) corrected by the marker [5]: 88.7 ± 37.9 µL/cm/h
average corrected water flux [6]: 26.8 ± 49.2 µL/cm/h
water flux [7]: 55 µL/cm/h
urinary recovery [8]: about 4%
